Assay results published in US20020182635A1, “Methods of screening for LTRPC2 modulators” (priority 2000, published 2002).
Like-named read-outs stand apart in the source and are kept apart here.

Assays:
NUDT9 = target: T1, NUDT9 (Homo sapiens, UniProt Q9BW91); assay: Nudix-type hydrolase activity towards a panel of substrates, NUDT9; assay type: biochemical; conditions: purified bacterially expressed NUDT9
T1 construct: made in house; host or cells: E. coli BL21 (DE3), pET-24d
T1 sequence (Q9BW91 47-350): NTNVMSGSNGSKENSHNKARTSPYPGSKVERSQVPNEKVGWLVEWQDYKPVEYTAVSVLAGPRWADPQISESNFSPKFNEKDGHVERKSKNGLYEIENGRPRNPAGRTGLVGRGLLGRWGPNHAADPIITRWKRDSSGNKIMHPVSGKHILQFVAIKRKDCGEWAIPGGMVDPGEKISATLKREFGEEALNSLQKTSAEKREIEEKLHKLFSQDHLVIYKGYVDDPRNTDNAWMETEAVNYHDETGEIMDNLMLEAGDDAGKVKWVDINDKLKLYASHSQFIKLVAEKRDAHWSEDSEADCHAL
Experimental: (§1) FIG. 2(B) is a characterization of the enzymatic activity of NUDT9 and NUDT9-H. Purified preparations of NUDT9 and NUDT9-H were screened for Nudix-type activity towards a panel of substrates as described in the methods section. Km and Vmax were calculated by non-linear regression analysis of Lineweaver-Burke plots.
(§2) BL21 (DE3) cells containing the respective expression plasmids were grown at 37° C. in LB broth on a shaker to an A600 of about 0.6 and induced by the addition of isopropyl-b-D-thiogalactopyranoside to a concentration of 1 mM. The cells were grown for an additional 4 h, harvested, washed by suspension in isotonic saline, centrifuged in pre-weighed centrifuge tubes, and the packed cells were stored at −80 ° C. […] In the case of NUDT9, enzyme was extracted in the freeze-thaw fraction and ammonium sulfate was added to 35% final concentration. The precipitate was discarded after centrifugation and ammonium sulfate was added to the supernatant to a final concentration of 50%. The precipitate was collected by centrifugation, dissolved, then chromatographed on a gel filtration column (Sephadex G-100). The active fractions containing the majority of the enzyme were pooled, concentrated by centrifugation in an Amicon Centriprep30, dialyzed, and chromatographed on DEAE-sepharose. The purified enzyme was concentrated from the pooled active fractions again using an Amicon Centriprep30. For the NUDT9 homology region of LTRPC2, the protein was extracted in the freeze-thaw fraction and ammonium sulfate was added to 35% final concentration and centrifuged. The precipitate was dissolved, dialyzed, and chromatographed on DEAE-sepharose. The purified enzyme was concentrated from the pooled active fractions by precipitation with 70% ammonium sulfate.
(§3) Enzyme Assay: Enzyme velocities were quantified by measuring the conversion of a phosphatase-insensitive substrate, ADPR, to the phosphatase-sensitive products, AMP and ribose-5-phosphate. The liberated inorganic orthophosphate was measured by the procedure of Ames and DubinENRfu^27. The standard incubation mixture ([…]) contained 50 mM Tris-Cl, pH 9.0, 16 mM MgCl2, 2 mM ADPR, 0.2-1 milliunitsof enzyme and 4 units of alkaline intestinal phosphatase. After 30 min at 37° C., the reaction was terminated by the addition of EDTA and inorganic orthophosphate was measured. A unit of enzyme hydrolyzes […] of substrate per min under these conditions. Note that 2 moles of phosphate are liberated per mole of ADPR hydrolyzed. Product determination: The standard assay mixture (minus alkaline intestinal phosphatase) was incubated for 30 min at 37° C. and terminated by the addition of […] of a mixture of four parts of Norit (20% packed volume) and one part of 7% HClO4 to remove adenine-containing nucleotides. After centrifugation, […] was adjusted to an alkaline pH and incubated for an additional 30 min at 37° C. with alkaline intestinal phosphatase to hydrolyze the ribose-5-phosphate formed.

LTRPC2 NUDT9-H = target: T2, LTRPC2 NUDT9-H (Homo sapiens, UniProt O94759); assay: Nudix-type hydrolase activity towards a panel of substrates, NUDT9-H region of LTRPC2; assay type: biochemical; conditions: purified bacterially expressed NUDT9-H of LTRPC2
T2 construct: an artificial start codon, amino acids 1197-1503, a stop codon; artificial initiating Met (artificial start codon) (N); made in house; host or cells: E. coli BL21 (DE3), pET-24d
T2 sequence (O94759 1197-1503): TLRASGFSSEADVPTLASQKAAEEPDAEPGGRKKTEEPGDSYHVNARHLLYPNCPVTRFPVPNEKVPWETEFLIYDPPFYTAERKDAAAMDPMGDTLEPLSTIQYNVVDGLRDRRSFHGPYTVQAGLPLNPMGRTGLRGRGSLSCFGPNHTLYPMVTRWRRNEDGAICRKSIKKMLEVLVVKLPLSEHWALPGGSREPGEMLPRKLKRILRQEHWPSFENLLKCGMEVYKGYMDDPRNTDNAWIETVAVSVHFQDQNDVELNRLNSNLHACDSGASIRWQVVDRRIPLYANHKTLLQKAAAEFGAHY
Experimental: as §1, §2, §3

LTRPC2 = target: T3, LTRPC2 (Homo sapiens, UniProt O94759); assay: ADPR-dependent gating of LTRPC2, whole-cell patch-clamp in tetracycline-induced HEK-293 cells expressing FLAG-LTRPC2; assay type: cell-based
T3 construct: beginning at amino acid 3 and extending to amino acid 1503; FLAG tag within the printed N-terminal leader […]; expressed in transfected cells
T3 sequence (O94759 3-1503): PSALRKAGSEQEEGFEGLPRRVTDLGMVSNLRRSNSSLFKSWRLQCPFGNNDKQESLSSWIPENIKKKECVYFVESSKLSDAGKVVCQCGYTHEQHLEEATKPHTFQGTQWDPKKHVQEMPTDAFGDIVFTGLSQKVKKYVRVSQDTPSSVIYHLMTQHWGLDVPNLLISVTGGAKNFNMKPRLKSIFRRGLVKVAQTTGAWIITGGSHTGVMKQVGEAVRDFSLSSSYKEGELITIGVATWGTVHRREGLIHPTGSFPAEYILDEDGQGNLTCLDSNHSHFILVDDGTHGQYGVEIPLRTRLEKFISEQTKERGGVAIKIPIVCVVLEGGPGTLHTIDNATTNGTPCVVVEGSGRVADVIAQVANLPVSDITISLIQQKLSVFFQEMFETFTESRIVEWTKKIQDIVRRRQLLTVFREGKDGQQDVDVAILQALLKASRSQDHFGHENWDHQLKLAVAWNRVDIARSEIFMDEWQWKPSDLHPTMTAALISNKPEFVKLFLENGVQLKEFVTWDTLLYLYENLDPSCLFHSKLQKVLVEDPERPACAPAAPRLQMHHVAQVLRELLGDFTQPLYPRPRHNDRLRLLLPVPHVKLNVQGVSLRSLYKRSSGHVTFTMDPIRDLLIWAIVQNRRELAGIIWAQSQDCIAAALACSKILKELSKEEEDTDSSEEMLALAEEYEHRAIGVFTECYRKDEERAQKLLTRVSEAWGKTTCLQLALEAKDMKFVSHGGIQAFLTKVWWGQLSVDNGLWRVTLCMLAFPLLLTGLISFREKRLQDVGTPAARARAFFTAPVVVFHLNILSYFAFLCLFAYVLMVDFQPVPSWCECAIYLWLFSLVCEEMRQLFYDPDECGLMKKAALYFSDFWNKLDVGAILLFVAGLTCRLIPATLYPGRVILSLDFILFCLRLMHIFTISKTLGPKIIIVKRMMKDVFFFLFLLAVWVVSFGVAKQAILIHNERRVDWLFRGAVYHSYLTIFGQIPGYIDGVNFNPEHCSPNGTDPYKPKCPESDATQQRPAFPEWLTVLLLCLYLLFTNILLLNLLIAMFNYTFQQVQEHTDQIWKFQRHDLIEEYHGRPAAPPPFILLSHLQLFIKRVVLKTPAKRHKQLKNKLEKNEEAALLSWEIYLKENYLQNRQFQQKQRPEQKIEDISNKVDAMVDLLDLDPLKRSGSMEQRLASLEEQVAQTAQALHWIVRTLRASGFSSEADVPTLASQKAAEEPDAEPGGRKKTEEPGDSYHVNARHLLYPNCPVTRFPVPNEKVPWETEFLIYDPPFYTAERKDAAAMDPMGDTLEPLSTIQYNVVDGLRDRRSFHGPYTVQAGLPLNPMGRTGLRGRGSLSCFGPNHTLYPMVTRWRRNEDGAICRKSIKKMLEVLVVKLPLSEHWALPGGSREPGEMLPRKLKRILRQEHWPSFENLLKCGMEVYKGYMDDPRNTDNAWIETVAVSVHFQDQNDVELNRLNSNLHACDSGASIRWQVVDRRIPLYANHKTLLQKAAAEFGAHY
Experimental: 10^6 cells were analyzed for expression of a FLAG-reactive protein by anti-FLAG immunoprecipitation/anti-FLAG immunoblotting. […] The open symbols represent superimposed analyses of responses obtained from (i) wild-type HEK-293 cells (WT) perfused with standard internal solution in the absence of ADPR (n=3±sem); (ii) uninduced cells perfused with standard internal solution in the absence of ADPR (n=5±sem); (iii) uninduced HEK-293 cells perfused with standard solution containing 1 mM ADPR (n=3±sem); (iv) tet-induced HEK-293 cells perfused with standard internal solution without ADPR present (n=4±sem). […] The filled symbols indicate the time points at which individual high-resolution data traces were extracted for presentation as I/V curves in FIG. 3(F). […] Ramp currents were recorded in response of a standard voltage ramp stimulus (−100 mV to +100 mV in 50 ms).
FIG. 4 depicts the characterization of ADPR-dependent currents in LTRPC2-expressing in HEK-293 cells. […] HEK-293 cells expressing FLAG-LTRPC2 were perfused with defined ADPR concentrations ranging from […] to 1 mM, and currents were measured at −80 mV as in FIG. 3(D). The maximum current amplitude of individual cells was derived by analyzing the time course of current development (see e.g., FIGS. 3(C) and 3(D)) and fitting a Boltzmann curve to the rising phase of the developing cationic conductance. Peak current amplitudes were averaged and plotted versus ADPR concentration (n=5 to 12±sem). […] FIG. 4(B) depicts the kinetics of ADPR-dependent gating of LTRPC2. The temporal development of ADPR-gated currents was assessed as described in FIG. 4(A) by fitting a Boltzmann curve to the rising phase of the developing cationic conductance. The mid-point values of this analysis correspond to the time of half-maximal current activation, and are plotted as a function of ADPR concentration. […] HEK-293 cells expressing FLAG-LTRPC2 were perfused with 100 μM ADPR. 80 seconds into the experiment, and indicated by the bar, isotonic CaCl2 solution (120 mM CaCl2, 300 mOsm) was applied externally for 20 seconds.
Wild type and tetracycline-inducible HEK-293 FLAG-LTRPC2 expressing cells were cultured at 37° C./5% CO2 in DMEM supplemented with 10% FBS and 2 mM glutamine. The medium was supplemented with blasticidin (5 μg/ml; Invitrogen) and zeocin (0.4 mg/ml; Invitrogen). Cells were resuspended in media containing 1 μg/ml tetracycline (Invitrogen) 24 hours before experiments.
For patch-clamp experiments, cells grown on coverslips were transferred to the recording chamber and kept in a standard modified Ringer's solution of the following composition (in mM): NaCl 145, KCl 2.8, CaCl2 1, MgCl2 2, glucose 10, Hepes-NaOH 10, pH 7.2. Intracellular pipette-filling solutions contained (in mM): Cs-glutamate 145, NaCl 8, MgCl2 1, Cs-BAPTA 10, pH 7.2 adjusted with CsOH.

[1] = test system: ADPR-dependent current (IADPR) in human U937 monocytes; assay: Endogenous ADPR-dependent current (IADPR), whole-cell patch-clamp in U937 monocytes; assay type: cell-based; conditions: U937 cells; for EC50: read-out: apparent EC50 for IADPR
Experimental: FIG. 5 depicts the characterization of endogenous ADPR-dependent current(IADPR) in human U937 monocytes. […] In the right lane, the blot identifies LTRPC2 mRNA in native U937 cells. […] FIG. 5(B) depicts the temporal development of inward currents in U937 cells at −80 mV activated by different intracellular concentrations of ADPR in the presence of 10 mM BAPTA (n=4-11 each). FIG. 5(C) depicts the temporal development of inward currents in U937 cells at −80 mV activated by different intracellular concentrations of ADPR while [Ca^2+]i was buffered to 100 nM (n=5-7 each). FIG. 5(D) depicts the temporal development of inward currents in U937 cells at −80 mV activated by different intracellular concentrations of ADPR in the absence of exogenous buffers (n=5-9 each). […] Representative current record in response to a voltage ramp ranging from −100 to +100 mV over 50 ms. The record was obtained 100 s after whole-cell establishment from a cell perfused with 100 μM ADPR under unbuffered conditions.
For patch-clamp experiments, cells grown on coverslips were transferred to the recording chamber and kept in a standard modified Ringer's solution of the following composition (in mM): NaCl 145, KCl 2.8, CaCl2 1, MgCl2 2, glucose 10, Hepes-NaOH 10, pH 7.2. Intracellular pipette-filling solutions contained (in mM): Cs-glutamate 145, NaCl 8, MgCl2 1, Cs-BAPTA 10, pH 7.2 adjusted with CsOH. In some experiments, BAPTA was omitted from the pipette solution and 100 μM fura-2 was added for the purpose of fluorimetric monitoring of intracellular Ca^2+ concentration. […] The agonists were dissolved in the standard intracellular solution. Patch-clamp experiments were performed in the tight-seal whole-cell configuration at 21-25° C. High-resolution current recordings were acquired by a computer-based patch-clamp amplifier system (EPC-9, HEKA, Lambrecht, Germany). Patch pipettes had resistances between 2-4 MW after filling with the standard intracellular solution. Immediately following establishment of the 5 whole-cell configuration, voltage ramps of 50 ms duration spanning the voltage range of −100 to +100 mV were delivered from a holding potential of 0 mV at a rate of 0.5 Hz over a period of 200 to 400 seconds. All voltages were corrected for a liquid junction potential of 10 mV between external and internal solutions. Currents were filtered at 2.9 kHz and digitized at 100 μs intervals. Capacitive currents and series resistance were determined and corrected before each voltage ramp using the automatic capacitance compensation of the EPC-9. For analysis, the very first ramps prior to current activation were digitally filtered at 2 kHz, pooled and used for leak-subtraction of all subsequent current records. […]

Row | Compound | hydrolysis as substrate by NUDT9 (NUDT9) | hydrolysis as substrate by NUDT9-H (LTRPC2 NUDT9-H) | other results
1 | Nc1ncnc2c1ncn2[C@@H]1O[C@H](COP(=O)(O)OP(=O)(O)O[C@H]2O[C@H](CO)[C@@H](O)[C@H](O)[C@H]2O)[C@@H](O)[C@H]1O [ADP-lucose] | not hydrolyzed | not hydrolyzed | –
2 | Nc1ncnc2c1ncn2[C@@H]1O[C@H](COP(=O)(O)OP(=O)(O)OC[C@H]2OC(O)[C@H](O)[C@@H]2O)[C@@H](O)[C@H]1O (stereo partly drawn) [ADPR, Adenosine 5-diphospho (ADP)-ribose] | – | – | Hill coefficient of dose-response curve (LTRPC2; HEK-293 cells expressing FLAG-LTRPC2, currents at −80 mV): 9; EC50 (LTRPC2; HEK-293 cells expressing FLAG-LTRPC2, intracellular perfusion, peak currents at −80 mV, read-out: apparent EC50 of ADPR-dependent gating of LTRPC2): 90 µM; cells that generated currents above control levels (LTRPC2; cells perfused with 60 μM ADPR or higher (n=38)): 91%; intracellular concentration at which gating of the LTRPC2 channel begins (LTRPC2; intracellular ADPR): 60 to 100 µM; intracellular concentration at which saturation occurs (LTRPC2; intracellular ADPR): ~300 µM; membrane currents at −80 mV (LTRPC2; tet-induced HEK-293 cells expressing FLAG-LTRPC2 perfused with 100 μM ADPR): large inward currents; Hill coefficient ([1]; [Ca2+]i buffered to 100 nM): 8; EC50 ([1]; [Ca2+]i buffered to 100 nM): 130 µM; Hill coefficient ([1]; unbuffered): 8; EC50 ([1]; unbuffered (exogenous buffers omitted)): 40 µM
3 | Nc1nc2c(ncn2[C@@H]2O[C@H](COP(=O)(O)OP(=O)(O)O[C@H]3O[C@H](CO)[C@@H](O)[C@H](O)[C@@H]3O)[C@@H](O)[C@H]2O)c(=O)[nH]1 [GDP-mannose] | not hydrolyzed | not hydrolyzed | –
4 | NC(=O)C1=CN([C@@H]2O[C@H](COP(=O)(O)OP(=O)(O)OC[C@H]3O[C@@H](n4cnc5c(N)ncnc54)[C@H](O)[C@@H]3O)[C@@H](O)[C@H]2O)C=CC1 [NADH] | not hydrolyzed | not hydrolyzed | –
5 | NC(=O)c1ccc[n+]([C@@H]2O[C@H](COP(=O)([O-])OP(=O)(O)OC[C@H]3O[C@@H](n4cnc5c(N)ncnc54)[C@H](O)[C@@H]3O)[C@@H](O)[C@H]2O)c1 [NAD^+, nicotinamide adenine dinucleotide] | not hydrolyzed | not hydrolyzed | –
6 | Nc1ccn([C@H]2C[C@H](O)[C@@H](COP(=O)(O)OP(=O)(O)OP(=O)(O)O)O2)c(=O)n1 [deoxy-CTP] | not hydrolyzed | not hydrolyzed | –
7 | Nc1nc2c(ncn2[C@H]2C[C@H](O)[C@@H](COP(=O)(O)OP(=O)(O)OP(=O)(O)O)O2)c(=O)[nH]1 [deoxy-GTP] | not hydrolyzed | not hydrolyzed | –
8 | Cc1cn([C@H]2C[C@H](O)[C@@H](COP(=O)(O)OP(=O)(O)OP(=O)(O)O)O2)c(=O)[nH]c1=O [deoxy-TTP] | not hydrolyzed | not hydrolyzed | –
